Drawing on ChEMBL document CHEMBL5291721, “A preclinical secondary pharmacology resource illuminates target-adverse drug reaction associations of marketed drugs” (Nat Commun, 2023), this text covers AC50 for 19 compounds.

Structures are written as SMILES.

The target in experiment [1] is T1, Endothelin-1 receptor (Homo sapiens, UniProt P25101).
T1 sequence (P25101 whole entry): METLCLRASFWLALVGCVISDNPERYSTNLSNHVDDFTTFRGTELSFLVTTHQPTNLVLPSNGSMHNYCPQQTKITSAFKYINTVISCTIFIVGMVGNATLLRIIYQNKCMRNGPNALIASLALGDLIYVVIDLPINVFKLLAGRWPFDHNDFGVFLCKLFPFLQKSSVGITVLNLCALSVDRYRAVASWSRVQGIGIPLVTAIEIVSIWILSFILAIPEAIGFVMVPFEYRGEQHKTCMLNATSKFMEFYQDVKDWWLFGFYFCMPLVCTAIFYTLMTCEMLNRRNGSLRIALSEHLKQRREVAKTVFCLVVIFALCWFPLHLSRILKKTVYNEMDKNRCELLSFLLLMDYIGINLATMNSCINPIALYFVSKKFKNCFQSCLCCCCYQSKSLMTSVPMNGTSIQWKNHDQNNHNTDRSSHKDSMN

Experiment [2] has as its target T2, B2 bradykinin receptor (Homo sapiens, UniProt P30411).
T2 sequence (P30411 whole entry): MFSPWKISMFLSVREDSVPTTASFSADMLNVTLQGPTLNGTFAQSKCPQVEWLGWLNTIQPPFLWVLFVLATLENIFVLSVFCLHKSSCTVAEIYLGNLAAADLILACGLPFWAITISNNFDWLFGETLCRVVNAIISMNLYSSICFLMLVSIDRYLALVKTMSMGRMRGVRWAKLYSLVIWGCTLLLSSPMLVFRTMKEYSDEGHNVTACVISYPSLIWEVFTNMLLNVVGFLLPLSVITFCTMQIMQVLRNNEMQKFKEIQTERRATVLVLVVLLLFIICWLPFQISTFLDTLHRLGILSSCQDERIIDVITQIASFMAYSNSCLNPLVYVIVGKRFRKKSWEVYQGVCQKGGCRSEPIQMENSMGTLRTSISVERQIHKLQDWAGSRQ

Experiment [3] concerns the target Cannabinoid receptor 1 (Homo sapiens, UniProt P21554). Format: functional, cell-based.
Experiment [4] addresses Melanocortin receptor 4 (Homo sapiens, UniProt P32245).
Experiment [5] has as its target Beta-2 adrenergic receptor (Homo sapiens, UniProt P07550).
In experiment [6] the target is T3, Progesterone receptor (Homo sapiens, UniProt P06401).
T3 sequence (P06401 whole entry): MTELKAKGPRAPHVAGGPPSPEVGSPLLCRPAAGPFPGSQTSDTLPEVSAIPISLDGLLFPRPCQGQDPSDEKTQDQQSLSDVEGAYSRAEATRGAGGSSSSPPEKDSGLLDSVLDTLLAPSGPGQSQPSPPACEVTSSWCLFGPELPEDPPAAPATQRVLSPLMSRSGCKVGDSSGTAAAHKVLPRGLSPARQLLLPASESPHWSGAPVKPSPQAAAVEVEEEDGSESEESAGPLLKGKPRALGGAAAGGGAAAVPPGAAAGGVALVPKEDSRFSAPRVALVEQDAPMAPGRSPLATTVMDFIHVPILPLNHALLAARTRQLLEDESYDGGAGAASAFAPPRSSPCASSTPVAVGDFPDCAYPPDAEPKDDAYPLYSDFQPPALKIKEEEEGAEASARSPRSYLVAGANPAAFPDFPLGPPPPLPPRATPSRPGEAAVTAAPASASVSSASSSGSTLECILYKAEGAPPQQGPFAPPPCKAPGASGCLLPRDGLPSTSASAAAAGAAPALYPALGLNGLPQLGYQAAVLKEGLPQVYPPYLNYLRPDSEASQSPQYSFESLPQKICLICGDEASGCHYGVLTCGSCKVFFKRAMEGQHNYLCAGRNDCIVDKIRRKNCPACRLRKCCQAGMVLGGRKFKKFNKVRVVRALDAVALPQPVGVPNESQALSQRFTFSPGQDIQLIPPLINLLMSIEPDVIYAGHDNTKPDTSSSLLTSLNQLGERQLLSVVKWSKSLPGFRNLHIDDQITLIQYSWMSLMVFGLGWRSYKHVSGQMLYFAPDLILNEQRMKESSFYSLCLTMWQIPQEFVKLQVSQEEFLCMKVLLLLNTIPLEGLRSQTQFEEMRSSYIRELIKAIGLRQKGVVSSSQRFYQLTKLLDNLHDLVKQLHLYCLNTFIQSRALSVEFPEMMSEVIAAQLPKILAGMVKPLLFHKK
Format: functional.

The target of experiment [7] is Prothrombin (Homo sapiens, UniProt P00734). Format: functional.
Experiment [8] deals with Histamine H1 receptor (Homo sapiens, UniProt P35367).
Chain of Histamine H1 receptor (P35367 whole entry): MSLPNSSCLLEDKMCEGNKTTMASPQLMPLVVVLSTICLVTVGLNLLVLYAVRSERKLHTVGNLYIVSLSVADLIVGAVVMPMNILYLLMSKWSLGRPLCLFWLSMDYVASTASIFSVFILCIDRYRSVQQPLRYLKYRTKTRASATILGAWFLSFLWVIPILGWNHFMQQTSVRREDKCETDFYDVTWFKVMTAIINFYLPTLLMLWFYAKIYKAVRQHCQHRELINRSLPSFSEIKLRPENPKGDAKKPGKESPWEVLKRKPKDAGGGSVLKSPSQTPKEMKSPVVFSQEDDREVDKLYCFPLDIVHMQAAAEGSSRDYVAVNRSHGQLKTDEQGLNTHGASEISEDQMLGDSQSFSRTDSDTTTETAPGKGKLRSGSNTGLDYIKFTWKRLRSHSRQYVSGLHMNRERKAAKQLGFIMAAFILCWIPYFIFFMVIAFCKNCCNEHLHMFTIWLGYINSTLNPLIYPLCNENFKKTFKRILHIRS
Experiment [9] concerns the target T4, 5-hydroxytryptamine receptor 1A (Homo sapiens, UniProt P08908).
T4 sequence (P08908 whole entry): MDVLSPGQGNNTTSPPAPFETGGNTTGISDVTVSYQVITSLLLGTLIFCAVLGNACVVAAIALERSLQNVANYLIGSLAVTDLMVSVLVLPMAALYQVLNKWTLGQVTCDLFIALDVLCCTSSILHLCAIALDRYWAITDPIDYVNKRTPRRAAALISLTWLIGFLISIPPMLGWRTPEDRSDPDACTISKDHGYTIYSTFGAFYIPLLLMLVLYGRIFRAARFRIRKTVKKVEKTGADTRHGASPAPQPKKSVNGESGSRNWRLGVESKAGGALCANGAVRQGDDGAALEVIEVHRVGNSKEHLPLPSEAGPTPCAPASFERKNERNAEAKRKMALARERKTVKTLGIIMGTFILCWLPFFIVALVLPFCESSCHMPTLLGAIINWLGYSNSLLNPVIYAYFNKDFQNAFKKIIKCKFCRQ

Experiment [10] has as its target T5, Thromboxane A2 receptor (Homo sapiens, UniProt P21731).
T5 sequence (P21731 whole entry): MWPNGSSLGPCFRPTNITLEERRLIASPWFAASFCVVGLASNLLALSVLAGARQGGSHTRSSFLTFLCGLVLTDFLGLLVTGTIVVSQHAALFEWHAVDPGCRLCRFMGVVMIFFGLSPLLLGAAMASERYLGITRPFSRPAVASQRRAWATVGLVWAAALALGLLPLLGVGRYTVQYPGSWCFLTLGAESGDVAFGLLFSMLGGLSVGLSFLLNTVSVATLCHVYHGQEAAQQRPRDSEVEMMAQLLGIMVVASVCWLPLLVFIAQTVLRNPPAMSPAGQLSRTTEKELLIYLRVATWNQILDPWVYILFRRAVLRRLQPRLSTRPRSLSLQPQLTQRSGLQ
The experiment is classed as functional, cell-based.
Further: assay procedure not described here.

Chain of Cannabinoid receptor 1 (P21554 whole entry): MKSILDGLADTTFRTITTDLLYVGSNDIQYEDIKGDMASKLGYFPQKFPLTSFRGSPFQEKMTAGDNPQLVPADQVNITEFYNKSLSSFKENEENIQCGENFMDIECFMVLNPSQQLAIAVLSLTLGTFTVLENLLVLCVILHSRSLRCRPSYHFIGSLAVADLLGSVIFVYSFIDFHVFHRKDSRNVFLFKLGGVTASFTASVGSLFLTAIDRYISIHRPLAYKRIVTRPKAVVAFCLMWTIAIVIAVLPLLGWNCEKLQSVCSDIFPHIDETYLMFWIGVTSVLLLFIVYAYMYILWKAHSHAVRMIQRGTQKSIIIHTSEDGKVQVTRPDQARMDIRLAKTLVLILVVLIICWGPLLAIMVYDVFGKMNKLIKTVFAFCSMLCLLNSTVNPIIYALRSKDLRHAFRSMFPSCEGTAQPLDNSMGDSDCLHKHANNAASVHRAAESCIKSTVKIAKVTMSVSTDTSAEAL
Chain of Beta-2 adrenergic receptor (P07550 whole entry): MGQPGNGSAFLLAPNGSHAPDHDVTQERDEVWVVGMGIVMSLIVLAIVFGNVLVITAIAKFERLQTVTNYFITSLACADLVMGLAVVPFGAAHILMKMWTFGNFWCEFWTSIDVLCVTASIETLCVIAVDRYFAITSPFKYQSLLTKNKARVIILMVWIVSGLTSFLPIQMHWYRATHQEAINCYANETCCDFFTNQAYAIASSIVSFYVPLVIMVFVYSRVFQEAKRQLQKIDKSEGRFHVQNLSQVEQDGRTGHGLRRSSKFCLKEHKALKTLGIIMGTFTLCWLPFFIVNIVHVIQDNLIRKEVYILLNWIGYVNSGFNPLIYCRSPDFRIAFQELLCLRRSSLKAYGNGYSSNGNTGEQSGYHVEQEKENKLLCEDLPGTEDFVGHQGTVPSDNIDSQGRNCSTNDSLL
Chain of Melanocortin receptor 4 (P32245 whole entry): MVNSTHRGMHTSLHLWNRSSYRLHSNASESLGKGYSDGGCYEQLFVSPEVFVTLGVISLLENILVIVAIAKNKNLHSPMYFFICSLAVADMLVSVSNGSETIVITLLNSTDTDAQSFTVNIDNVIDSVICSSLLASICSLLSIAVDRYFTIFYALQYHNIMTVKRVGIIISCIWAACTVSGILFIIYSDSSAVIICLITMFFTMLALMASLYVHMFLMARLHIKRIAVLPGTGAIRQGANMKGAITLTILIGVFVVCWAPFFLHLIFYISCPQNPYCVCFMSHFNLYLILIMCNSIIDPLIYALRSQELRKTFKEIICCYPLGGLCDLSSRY

Turning to `CCOC(=O)[C@H](CCc1ccccc1)N[C@@H](C)C(=O)N1[C@H](C(=O)O)C[C@@H]2CCC[C@@H]21`, the AC50 was more than 30 µM in experiment [1]; more than 30 µM in [2]; more than 30 µM in [3]; more than 30 µM in experiment [4]; more than 10 µM in [5].
For the compound `CCCSc1ccc2nc(NC(=O)OC)[nH]c2c1` [ALBENDAZOLE], the AC50 in [6] was more than 10 µM; in experiment [2], more than 10 µM; in [4], more than 10 µM; in experiment [5], more than 30 µM.
`C=CCc1ccccc1OCC(O)CNC(C)C` (stereo not drawn) [ALPRENOLOL]: the AC50 in experiment [1] is more than 30 µM; in [6], more than 30 µM; in [2], 14 µM; in experiment [3], more than 30 µM; in [7] it was more than 0.3 µM; in [8], more than 30 µM. For the same compound, the AC50 in experiment [9] is 0.0146 µM; in experiment [10], more than 0.3 µM.
With `CN1C(=O)CCS(=O)(=O)C1c1ccc(Cl)cc1` (stereo not drawn) [CHLORMEZANONE], the AC50 is more than 10 µM in [6]; more than 10 µM in experiment [2]; more than 10 µM in experiment [4]; more than 30 µM in [8]; more than 10 µM in experiment [5].
As for `CN(C)/N=N/c1[nH]cnc1C(N)=O` [DACARBAZINE], the AC50 in experiment [6], in [2], in experiment [4] and in [5] was more than 10 µM each time.
`O=C(OCC(O)CO)c1ccccc1Nc1ccnc2cc(Cl)ccc12` (stereo not drawn) [GLAFENINE]: the AC50 in experiment [1], in [6], in experiment [3], in experiment [7], in experiment [8] and in experiment [9] was more than 30 µM throughout. Further, the AC50 in experiment [10] was more than 30 µM.
On to `C[N+]1(C)CCC(OC(=O)C(O)(c2ccccc2)C2CCCC2)C1` (stereo not drawn) [GLYCOPYRRONIUM BROMIDE], for which the AC50 was more than 10 µM in experiment [6]; more than 30 µM in [2]; more than 30 µM in [7]; more than 30 µM in experiment [4]; more than 30 µM in experiment [10].
As to `O=P1(NCCCl)OCCCN1CCCl` (stereo not drawn) [IFOSFAMIDE], the AC50 in experiment [6], in experiment [2], in experiment [4] and in experiment [5] was more than 30 µM each time.
`CN1C(C(=O)Nc2ccccn2)=C(O)c2sc(Cl)cc2S1(=O)=O` [LORNOXICAM]: the AC50 in experiment [2] is more than 30 µM; in experiment [3], more than 30 µM; in experiment [4], more than 30 µM; in experiment [8] it was more than 10 µM; in experiment [5], more than 30 µM.
Turning to `Cc1cccc(Nc2ccccc2C(=O)O)c1C` [MEFENAMIC ACID], the AC50 is more than 10 µM in experiment [6]; more than 10 µM in experiment [2]; more than 30 µM in experiment [7]; more than 10 µM in [4]; more than 30 µM in [9]; more than 30 µM in experiment [10]. Moreover, the AC50 in experiment [5] is more than 10 µM.
As to `Clc1ccc(C(c2ccccc2Cl)C(Cl)Cl)cc1` (stereo not drawn) [MITOTANE], the AC50 in [6] was 0.45 µM; in [2] it was more than 10 µM; in experiment [4] it was more than 10 µM; in experiment [5], more than 10 µM.
`CC1(C)NC(=O)N(c2ccc([N+](=O)[O-])c(C(F)(F)F)c2)C1=O` [NILUTAMIDE]: the AC50 in [6], in experiment [2], in experiment [7], in [4], in experiment [8] and in experiment [9] was more than 30 µM in each case. Further, the AC50 in experiment [10] and in [5] was more than 30 µM in each case.
Regarding `CC[C@H]1[C@@H](O)[C@@H]2[C@H](CC[C@]3(C)[C@@H]([C@H](C)CCC(=O)O)CC[C@@H]23)[C@@]2(C)CC[C@@H](O)C[C@@H]12` [OBETICHOLIC ACID], the AC50 in [1], in experiment [6], in experiment [2], in experiment [3], in [7] and in [8] was more than 30 µM in each case. Also, the AC50 in experiment [9], in experiment [10] and in experiment [5] was more than 30 µM throughout.
`COCCCN1CCC(NC(=O)c2cc(Cl)c(N)c3c2OCC3)CC1` [PRUCALOPRIDE]: the AC50 was more than 30 µM in experiment [1]; more than 30 µM in experiment [6]; more than 30 µM in [3]; more than 30 µM in experiment [7]; more than 30 µM in experiment [8]; 6.1 µM in experiment [9]. The compound further gave an AC50 in [10] of more than 30 µM.
In the case of `Cc1c(C(=O)NN2CCCCC2)nn(-c2ccc(Cl)cc2Cl)c1-c1ccc(Cl)cc1` [RIMONABANT], the AC50 in experiment [1] is more than 30 µM; in experiment [6] it was more than 30 µM; in [2], more than 30 µM; in experiment [4] it was 28.2 µM; in experiment [8], 22 µM; in experiment [5], more than 10 µM.
As to `Clc1ccc2nsnc2c1NC1=NCCN1` [TIZANIDINE], the AC50 was more than 30 µM in [1]; more than 30 µM in experiment [2]; more than 30 µM in experiment [4]; more than 10 µM in experiment [8]; more than 10 µM in experiment [5].
Consider `O=C(O[C@H]1C[C@H]2CC[C@@H](C1)[N+]21CCCC1)C(O)(c1ccccc1)c1ccccc1` [TROSPIUM], for which the AC50 in experiment [6] is more than 30 µM; in [2] it was more than 30 µM; in [4] it was more than 30 µM; in experiment [8], 11 µM; in [5] it was more than 30 µM.
As for `Nc1ccn([C@H]2CC[C@@H](CO)O2)c(=O)n1` [ZALCITABINE], the AC50 in experiment [2] was more than 10 µM; in [3], more than 30 µM; in [4], more than 10 µM; in [8], more than 10 µM; in experiment [5], more than 10 µM.
Consider `NS(=O)(=O)Cc1noc2ccccc12` [ZONISAMIDE], for which the AC50 in experiment [6], in [2], in experiment [4], in [8] and in experiment [5] was more than 10 µM each time.
